Measured values reported in ChEMBL document CHEMBL1255421, “In vitro fungicidal activities of echinocandins against Candida metapsilosis, C. orthopsilosis, and C. parapsilosis evaluated by time-kill studies” (2010).
The source made the active and inactive calls. No cut-off for these calls is given here. Numbered stars: 1 amine (or outer) side, 2 acyl side, 3 side chain; on linkers, the order of the positions; unused ones are H or OH. Bridge positions count the residues as written; N and C are the ends. Square brackets hold non-standard residues; d marks the D form. Peptide text beside a SMILES is read from it. * marks the point of attachment. hTyr(3S-OH,4S-OH,3'-OSO3H) = N[C@H](C(=O)O)[C@H](O)[C@@H](O)c1ccc(O)c(OS(=O)(=O)O)c1; Orn(4R-OH,5R-OH) = O=C([C@H](C[C@@H](O)[C@@H](O)N[*:3])N[*:1])[*:2]; Pro(3S-OH,4S-Me) = C[C@H]1CN[C@H](C(=O)O)[C@H]1O; X1 = CCCCCOc1ccc(-c2cc(-c3ccc(C(=O)*)cc3)no2)cc1; Gln(3R-OH) = NC(=O)C[C@@H](O)[C@H](N)C(=O)O; Hyp = O=C(O)[C@@H]1C[C@@H](O)CN1

Tests used:
Candida orthopsilosis [1] = assay: Antifungal activity against Candida orthopsilosis clinical isolate bloodstream form assessed as minimum concentration required for => 3-log decrease in fungal growth after 12 to 48 hrs by time-kill assay; format: functional
Candida parapsilosis [2] = assay: Antifungal activity against Candida parapsilosis clinical isolate bloodstream form assessed as minimum concentration required for => 3-log decrease in fungal growth after 12 to 48 hrs by time-kill assay; format: functional
Candida metapsilosis [3] = assay: Antifungal activity against Candida metapsilosis clinical isolate bloodstream form assessed as induction of miniparadoxical effect at 16 mg/L after 48 hrs by time-kill assay; format: functional, organism-based
Candida metapsilosis [4] = assay: Antifungal activity against Candida metapsilosis clinical isolate bloodstream form assessed as induction of maximal fungal death at 16 mg/L after 48 hrs by time-kill assay; format: functional, organism-based
Candida orthopsilosis [5] = assay: Antifungal activity against Candida orthopsilosis clinical isolate bloodstream form assessed as induction of miniparadoxical effect at 16 mg/L after 48 hrs by time-kill assay; format: functional, organism-based
Candida parapsilosis [6] = assay: Antifungal activity against Candida parapsilosis clinical isolate bloodstream form assessed as fungal count at 1 mg/L measured at 6 hrs by time-kill assay; format: functional
Candida metapsilosis [7] = assay: Antifungal activity against Candida metapsilosis clinical isolate bloodstream form assessed as induction of maximal fungal death at 32 mg/L after 48 hrs by time-kill assay; format: functional, organism-based

Row | Compound | MED (Candida orthopsilosis [1]) [mg/L] | MED (Candida parapsilosis [2]) [mg/L] | Activity (Candida metapsilosis [3]) | Activity (Candida metapsilosis [4]) | Activity (Candida orthopsilosis [5]) | log10cfu (Candida parapsilosis [6]) | Activity (Candida metapsilosis [7])
1 | CC[C@H](C)C[C@H](C)CCCCCCCCC(=O)N[C@H]1C[C@@H](O)[C@@H](NCCN)NC(=O)[C@@H]2[C@@H](O)CCN2C(=O)[C@H]([C@H](O)CCN)NC(=O)[C@H]([C@H](O)[C@@H](O)c2ccc(O)cc2)NC(=O)[C@@H]2C[C@@H](O)CN2C(=O)[C@H]([C@@H](C)O)NC1=O [CASPOFUNGIN] | 14 | 14 | Active | Active | Active |  | 
2 | CCCCCOc1ccc(-c2cc(-c3ccc(C(=O)N[C@H]4C[C@@H](O)[C@@H](O)NC(=O)[C@@H]5[C@@H](O)[C@@H](C)CN5C(=O)[C@H]([C@H](O)CC(N)=O)NC(=O)[C@H]([C@H](O)[C@@H](O)c5ccc(O)c(OS(=O)(=O)O)c5)NC(=O)[C@@H]5C[C@@H](O)CN5C(=O)[C@H]([C@@H](C)O)NC4=O)cc3)no2)cc1 [MICAFUNGIN] (X1-[Orn(4R-OH,5R-OH)]T[Hyp][hTyr(3S-OH,4S-OH,3'-OSO3H)][Gln(3R-OH)][Pro(3S-OH,4S-Me)]; lactam 1-C) |  |  |  |  |  | 1.22 /ml | Active
